The values below come from ChEMBL document CHEMBL1201862, “PubChem BioAssay data set” (2004).

One data set concerns the target Cytochrome P450 2C19 (Homo sapiens, UniProt P33261). Nature of the data set: Cytochrome panel assay with activity outcomes. Panel member name: p450-cyp2c19 Compounds with AC50 equal or less than 10 uM are considered active. Format: functional.
The target in data set [1] is UDP-galactopyranose mutase (Mycobacterium tuberculosis, UniProt P9WIQ1). The data set can be described thus: Inhibitors of Mycobacterium tuberculosis UDP-galactopyranose mutase (UGM) enzyme Measured in Biochemical System Using Plate Reader - 2105-02_Inhibitor_Dose_CherryPick_Activity. [Related pubchem assays (depositor defined):AID504439].
The target of another data set is Ephrin type-A receptor 4 (Mus musculus, UniProt Q03137). The data set can be described thus: inhibitors of EphA4 binding to KYL peptide, primary screen, biochemical, colorimetric, mouse EphA4 (AID 689). Format: functional.
The next data set is described as follows: cells. Format: functional, cell-based. The conditions noted are these: INS-1E.
A short description of data set [2]: Dose-response inhibition of insulin secretion in a rat insulinoma line at 5 mM glucose (AID 1117331). Format: functional, cell-based. The conditions noted are these: INS-1E.
The nature of data set [3]: Glucagon-like peptide 1 release potency, NCI-H716 cell line, dose-response, half-maximal inhibitory concentration (AID 1117344). It counts as functional, cell-based.
Data set [4] is described as follows: half-maximal inhibitory concentration for glucagon-like peptide-1 release, STC-1 cell line, dose-response (AID 1117345). Format: functional, cell-based.
For the next data set, the target named is 14-3-3 protein gamma (Homo sapiens, UniProt P61981). The data set can be described thus: modulators of 14-3-3 gamma client binding – dose response (AID 711). It counts as functional.
Data set [5] has as its target Photoreceptor-specific nuclear receptor (Homo sapiens, UniProt Q9Y5X4). Nature of the data set: NR2E3 inverse agonists, dose response, biochemical, TR-FRET (AID 463256). It counts as functional.
For data set [6], the target named is Peroxisome proliferator-activated receptor gamma/Nuclear receptor corepressor 2 (Homo sapiens, UniProt P37231+Q9Y618). Nature of the data set: Counterscreen for NR2E3 inverse agonists: TR-FRET-based biochemical high throughput dose response assay to identify inverse agonists of the interaction between peroxisome proliferator-activated receptor gamma (PPARg) and nuclear receptor co-repressor 2 (NCOR2). It counts as functional.

The target of data set [7] is RNA-editing ligase 1, mitochondrial (Trypanosoma brucei brucei, UniProt P86926). Nature of the data set: TbREL1 ligase inhibitors, dose response, biochemical, fluorescence, Trypanosoma brucei (AID 1117295). Format: functional.
A further data set deals with NADPH oxidase 1 (Homo sapiens, UniProt Q9Y5S8). Nature of the data set: Late-stage luminescence-based cell-based dose response assay to identify inhibitors of NADPH oxidase 1 (NOX1): Purchased analogs 2. Format: functional.
The nature of data set [8]: P. falciparum Dd2 growth inhibitors, dose response, SYBR Green, dry powder samples, set 9 (AID 1159568). Format: functional, cell-based.

The structures appear in SMILES notation. Calls of active or inactive are those of the source. A value given as a limit tells only on which side of the number the result lay.

Sequence of UDP-galactopyranose mutase (P9WIQ1 whole entry): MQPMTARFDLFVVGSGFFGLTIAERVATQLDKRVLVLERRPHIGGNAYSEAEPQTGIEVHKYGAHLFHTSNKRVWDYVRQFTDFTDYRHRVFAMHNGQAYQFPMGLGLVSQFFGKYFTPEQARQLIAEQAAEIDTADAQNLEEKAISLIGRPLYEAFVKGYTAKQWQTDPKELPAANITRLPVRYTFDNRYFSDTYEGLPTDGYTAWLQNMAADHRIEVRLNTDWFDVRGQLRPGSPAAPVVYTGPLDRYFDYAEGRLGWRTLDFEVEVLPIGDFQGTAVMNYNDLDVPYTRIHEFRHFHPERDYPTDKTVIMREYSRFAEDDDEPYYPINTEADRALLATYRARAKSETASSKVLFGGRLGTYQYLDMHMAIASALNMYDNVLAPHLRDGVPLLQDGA
Sequence of RNA-editing ligase 1, mitochondrial (P86926 whole entry): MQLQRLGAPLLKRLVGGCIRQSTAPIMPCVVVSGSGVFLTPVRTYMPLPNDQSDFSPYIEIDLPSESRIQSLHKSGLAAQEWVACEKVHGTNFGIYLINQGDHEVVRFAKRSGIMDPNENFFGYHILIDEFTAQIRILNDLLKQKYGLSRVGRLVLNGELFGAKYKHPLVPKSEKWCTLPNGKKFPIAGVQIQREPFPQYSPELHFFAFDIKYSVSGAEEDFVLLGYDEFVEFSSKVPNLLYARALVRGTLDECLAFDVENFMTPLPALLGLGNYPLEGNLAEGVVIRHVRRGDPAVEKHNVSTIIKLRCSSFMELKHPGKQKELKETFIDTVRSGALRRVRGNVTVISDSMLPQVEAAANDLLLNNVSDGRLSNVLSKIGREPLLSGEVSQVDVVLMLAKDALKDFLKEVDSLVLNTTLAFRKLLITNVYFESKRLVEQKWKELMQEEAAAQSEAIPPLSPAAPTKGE
Sequence of Photoreceptor-specific nuclear receptor (Q9Y5X4 whole entry): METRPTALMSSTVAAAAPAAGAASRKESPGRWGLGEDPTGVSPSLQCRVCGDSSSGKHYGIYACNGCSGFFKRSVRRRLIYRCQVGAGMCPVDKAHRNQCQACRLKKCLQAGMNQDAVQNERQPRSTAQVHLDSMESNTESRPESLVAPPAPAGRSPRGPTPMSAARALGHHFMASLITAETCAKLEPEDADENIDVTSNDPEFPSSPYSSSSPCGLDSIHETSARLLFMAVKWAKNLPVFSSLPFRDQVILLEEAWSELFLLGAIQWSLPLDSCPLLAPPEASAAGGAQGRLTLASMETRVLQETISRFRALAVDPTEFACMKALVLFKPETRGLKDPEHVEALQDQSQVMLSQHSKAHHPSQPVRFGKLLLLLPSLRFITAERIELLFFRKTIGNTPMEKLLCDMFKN
Sequence of NADPH oxidase 1 (Q9Y5S8 whole entry): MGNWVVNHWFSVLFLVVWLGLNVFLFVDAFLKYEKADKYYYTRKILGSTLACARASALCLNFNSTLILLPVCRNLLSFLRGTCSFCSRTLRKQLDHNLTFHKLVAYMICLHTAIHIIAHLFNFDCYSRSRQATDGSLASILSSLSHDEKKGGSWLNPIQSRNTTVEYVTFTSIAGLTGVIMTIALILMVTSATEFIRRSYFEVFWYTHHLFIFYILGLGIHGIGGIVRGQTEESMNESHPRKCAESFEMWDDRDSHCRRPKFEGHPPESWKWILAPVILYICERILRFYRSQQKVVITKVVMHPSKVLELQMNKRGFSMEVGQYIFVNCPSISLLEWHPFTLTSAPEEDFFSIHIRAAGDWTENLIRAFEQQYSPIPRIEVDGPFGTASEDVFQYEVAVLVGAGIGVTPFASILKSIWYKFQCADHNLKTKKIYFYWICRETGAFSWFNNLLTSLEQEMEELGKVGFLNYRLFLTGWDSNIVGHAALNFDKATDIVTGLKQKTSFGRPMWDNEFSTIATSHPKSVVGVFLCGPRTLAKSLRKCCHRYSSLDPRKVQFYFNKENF
Sequence of Peroxisome proliferator-activated receptor gamma/Nuclear receptor corepressor 2 (P37231 whole entry): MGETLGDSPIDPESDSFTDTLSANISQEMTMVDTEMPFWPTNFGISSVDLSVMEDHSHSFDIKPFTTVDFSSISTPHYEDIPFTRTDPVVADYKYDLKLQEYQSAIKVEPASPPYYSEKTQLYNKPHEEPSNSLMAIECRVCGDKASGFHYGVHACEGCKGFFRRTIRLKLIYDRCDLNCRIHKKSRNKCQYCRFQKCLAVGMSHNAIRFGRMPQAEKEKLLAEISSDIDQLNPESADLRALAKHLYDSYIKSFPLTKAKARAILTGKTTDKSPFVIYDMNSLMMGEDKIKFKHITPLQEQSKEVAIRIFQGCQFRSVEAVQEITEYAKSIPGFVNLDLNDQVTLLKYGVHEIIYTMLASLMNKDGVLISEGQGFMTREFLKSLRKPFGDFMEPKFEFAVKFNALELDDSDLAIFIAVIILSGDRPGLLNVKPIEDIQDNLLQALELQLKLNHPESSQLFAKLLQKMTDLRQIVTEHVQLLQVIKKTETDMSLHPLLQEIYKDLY
Sequence of Peroxisome proliferator-activated receptor gamma/Nuclear receptor corepressor 2 (Q9Y618 whole entry): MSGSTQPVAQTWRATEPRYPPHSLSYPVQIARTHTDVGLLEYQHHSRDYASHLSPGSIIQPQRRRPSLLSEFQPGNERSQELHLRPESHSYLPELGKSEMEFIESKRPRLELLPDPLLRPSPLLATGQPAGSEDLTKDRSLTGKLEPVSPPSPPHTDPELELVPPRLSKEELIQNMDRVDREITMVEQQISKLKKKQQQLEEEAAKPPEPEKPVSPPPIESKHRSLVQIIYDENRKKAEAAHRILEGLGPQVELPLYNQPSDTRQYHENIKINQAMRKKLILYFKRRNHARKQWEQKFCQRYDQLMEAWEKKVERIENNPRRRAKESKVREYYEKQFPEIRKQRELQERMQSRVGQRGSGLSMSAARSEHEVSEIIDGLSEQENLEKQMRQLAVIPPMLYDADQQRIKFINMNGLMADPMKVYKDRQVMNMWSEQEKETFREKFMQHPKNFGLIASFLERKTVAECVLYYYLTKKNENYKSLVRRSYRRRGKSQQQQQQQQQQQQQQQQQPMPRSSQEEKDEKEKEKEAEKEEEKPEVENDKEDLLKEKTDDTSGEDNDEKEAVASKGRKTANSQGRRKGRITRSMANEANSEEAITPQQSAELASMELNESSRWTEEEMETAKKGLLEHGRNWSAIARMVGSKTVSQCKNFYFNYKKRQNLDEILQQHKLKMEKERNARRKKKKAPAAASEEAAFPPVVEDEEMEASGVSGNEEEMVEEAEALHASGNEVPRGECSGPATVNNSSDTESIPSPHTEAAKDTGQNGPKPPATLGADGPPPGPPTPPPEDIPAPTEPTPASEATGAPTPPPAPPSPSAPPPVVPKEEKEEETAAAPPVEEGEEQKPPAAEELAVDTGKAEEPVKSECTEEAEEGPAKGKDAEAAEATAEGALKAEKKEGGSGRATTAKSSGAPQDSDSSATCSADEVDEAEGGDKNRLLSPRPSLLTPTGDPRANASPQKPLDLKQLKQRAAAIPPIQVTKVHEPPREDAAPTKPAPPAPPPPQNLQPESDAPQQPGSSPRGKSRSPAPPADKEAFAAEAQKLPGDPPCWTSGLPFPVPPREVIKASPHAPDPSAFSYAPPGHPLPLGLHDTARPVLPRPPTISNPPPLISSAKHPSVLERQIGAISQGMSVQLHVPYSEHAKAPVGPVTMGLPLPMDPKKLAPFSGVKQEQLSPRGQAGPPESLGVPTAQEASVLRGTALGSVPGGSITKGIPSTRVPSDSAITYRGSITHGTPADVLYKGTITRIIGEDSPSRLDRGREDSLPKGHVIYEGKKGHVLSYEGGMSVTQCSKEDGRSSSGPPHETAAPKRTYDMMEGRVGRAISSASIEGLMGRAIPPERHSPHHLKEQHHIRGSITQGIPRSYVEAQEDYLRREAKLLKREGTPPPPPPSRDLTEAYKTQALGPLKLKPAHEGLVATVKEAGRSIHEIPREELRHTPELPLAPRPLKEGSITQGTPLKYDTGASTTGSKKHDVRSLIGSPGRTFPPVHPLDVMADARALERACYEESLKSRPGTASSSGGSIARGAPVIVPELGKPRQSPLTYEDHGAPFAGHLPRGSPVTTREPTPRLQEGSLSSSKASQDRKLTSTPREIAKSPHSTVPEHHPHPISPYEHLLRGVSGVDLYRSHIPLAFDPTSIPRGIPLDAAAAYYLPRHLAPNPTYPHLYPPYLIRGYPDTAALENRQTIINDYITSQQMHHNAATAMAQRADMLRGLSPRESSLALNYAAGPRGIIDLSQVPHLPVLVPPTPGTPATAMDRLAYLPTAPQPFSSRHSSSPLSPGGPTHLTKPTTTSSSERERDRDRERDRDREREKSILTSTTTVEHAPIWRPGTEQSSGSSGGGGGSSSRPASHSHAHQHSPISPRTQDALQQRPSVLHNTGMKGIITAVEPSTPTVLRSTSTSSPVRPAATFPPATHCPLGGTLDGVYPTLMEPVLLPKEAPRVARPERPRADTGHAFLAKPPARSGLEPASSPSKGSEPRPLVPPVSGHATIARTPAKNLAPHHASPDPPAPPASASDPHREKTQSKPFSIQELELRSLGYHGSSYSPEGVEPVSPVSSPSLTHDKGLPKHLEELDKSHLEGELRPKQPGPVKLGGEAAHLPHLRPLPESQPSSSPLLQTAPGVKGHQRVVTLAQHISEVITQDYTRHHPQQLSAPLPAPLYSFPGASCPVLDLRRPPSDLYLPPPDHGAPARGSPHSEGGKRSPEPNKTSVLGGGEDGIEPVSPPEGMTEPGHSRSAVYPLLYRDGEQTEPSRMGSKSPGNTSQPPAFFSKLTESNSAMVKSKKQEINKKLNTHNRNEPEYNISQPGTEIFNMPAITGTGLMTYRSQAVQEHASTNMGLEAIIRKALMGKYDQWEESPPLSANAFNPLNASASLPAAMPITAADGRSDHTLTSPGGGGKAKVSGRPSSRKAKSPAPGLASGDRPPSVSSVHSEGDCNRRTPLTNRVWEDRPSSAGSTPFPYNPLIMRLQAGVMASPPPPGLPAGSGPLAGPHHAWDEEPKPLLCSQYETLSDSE

Regarding `CCCCn1nc(-c2ccccc2)c2nc3ccccc3nc21`, the AC50 result is “inconclusive” on Cytochrome P450 2C19 and 41.9 µM (active) in [1]. The IC50 on Ephrin type-A receptor 4 was 13.1 µM (active).
Regarding `Oc1ccc(CCNCCCCCCNCCc2ccccc2)cc1O` [DOPEXAMINE], the IC50 (in the data set “cells”; in data set [2]) was > 33.3 µM (inactive) in each case.
Turning to `NC[C@@H]1O[C@H](O[C@H]2[C@H](O)[C@H](O[C@H]3[C@@H](O)[C@H](N)C[C@H](N)[C@H]3O[C@H]3O[C@H](CN)[C@H](O)[C@H](O)[C@H]3N)O[C@@H]2CO)[C@@H](N)[C@@H](O)[C@@H]1O`, the IC50 in [3] and in data set [4] was > 40 µM (inactive) throughout.
For the molecule `COCCNC(=O)C(c1ccncc1)N(C(=O)Cn1nnc2ccccc21)c1ccc(OC)cc1` (stereo not drawn), the IC50 on 14-3-3 protein gamma was 24.6 µM (active).
Consider `COc1ccc(-c2oc3ncn4nc(Cc5ccccc5)nc4c3c2-c2ccc(OC)cc2)cc1`, for which the half-maximal inhibitory concentration (IC50) was 7.69 µM (active) in data set [5] and 6.02 µM (active) in data set [6].
For the molecule `COC(=O)C1=C(C)N(Cc2cccc(C(F)(F)F)c2)C(NCc2ccccc2)=NC1c1ccccc1C(F)(F)F` (stereo not drawn), the IC50 in data set [7] was > 96.6 µM (inactive).
With `O=[N+]([O-])c1ccc(/C=N/Nc2c(Cl)cc(Cl)cc2Cl)cc1`, the IC50 against NADPH oxidase 1 is listed as > 17 µM (not active).
With `Cc1ccccc1-c1ccc([C@@H]2[C@H](CO)N3CCCCN(S(=O)(=O)Cc4ccccc4)C[C@@H]23)cc1`, in [8], the AC50 was 0.878 µM (active).
